The values below are quoted from earlier work in patent US20250353815A1, “AMINO ACID HAVING FLUORINE AT a-POSITION, AND DERIVATIVE OF SAME” (SynCrest Inc., priority 2022, published 2025).

Data set [1] concerns the target DNA methyltransferase. Particulars: inhibition of DNA methyltransferase.
The test system of data set [2] is DNA methyltransferase.

Regarding `O=C(O)[C@H](Cc1c[nH]c2ccccc12)N1C(=O)c2ccccc2C1=O` [RG-108, N-phthalyl-L-tryptophan], the “reprogramming of somatic cells into iPS cells” value with human somatic cells and in the data set on mouse somatic cells was “promotes the reprogramming” in each case. Besides, the IC50 at DNA methyltransferase [1] was 115 nM. For the same compound, in the data set on DNA methyltransferase [2], the “binding to the active site of the enzyme in molecular modeling” value was “bind directly to the active site of the enzyme”.

Usually IC50 stands for the concentration at which inhibition is half-maximal.
